In patent publication US8377884B2, “Variants of C-type natriuretic peptides” (Biomarin Pharmaceutical Inc., priority 2007, dated 2013):
Numbered stars: 1 amine (or outer) side, 2 acyl side, 3 side chain; on linkers, the order of the positions; unused ones are H or OH. Bridge positions count the residues as written; N and C are the ends. Square brackets hold non-standard residues; d marks the D form. Ends that are not written are not given here. Peptide text beside a SMILES is read from it. X1 = O=C(C(CN[*:1])c1ccccc1)[*:2]

Tests used:
[1] = target: Recombinant human NEP (Homo sapiens, UniProt P08473); assay: in vitro
Outline: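 Recombinant human NEP (1 ug/mL final) incubated with 100 uM CNP variant in 0.1 M Tris, pH 7, at 37° C for various times, then quenched with EDTA (10 mM final) and heat. Samples reduced and analysed by HPLC and mass spectrometry. Half-life derived from loss of intact variant over time.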

[2] = target: T1, NPR-B (Mus musculus, UniProt Q6VVW5); assay: Stimulation of cGMP production in NIH3T3 cells; format: cell-based, Murine; conditions: NIH3T3 cells, normalized to cell number and cGMP production with 1 uM wtCNP22; for cGMP response relative to 1 uM CNP22 (%) at 0.01 µM: read-out: cGMP Response rel. to 1 uM CNP22, 10 nM; for cGMP response relative to 1 uM CNP22 (%) at 1 µM: read-out: cGMP Response rel. to 1 uM CNP22, 1 uM
T1 construct: Murine NIH3T3 cells express endogenously the CNP signaling receptor, NPR-B; endogenous in cells; host or cells: NIH3T3 (murine fibroblasts)
T1 sequence (Q6VVW5 17-1047): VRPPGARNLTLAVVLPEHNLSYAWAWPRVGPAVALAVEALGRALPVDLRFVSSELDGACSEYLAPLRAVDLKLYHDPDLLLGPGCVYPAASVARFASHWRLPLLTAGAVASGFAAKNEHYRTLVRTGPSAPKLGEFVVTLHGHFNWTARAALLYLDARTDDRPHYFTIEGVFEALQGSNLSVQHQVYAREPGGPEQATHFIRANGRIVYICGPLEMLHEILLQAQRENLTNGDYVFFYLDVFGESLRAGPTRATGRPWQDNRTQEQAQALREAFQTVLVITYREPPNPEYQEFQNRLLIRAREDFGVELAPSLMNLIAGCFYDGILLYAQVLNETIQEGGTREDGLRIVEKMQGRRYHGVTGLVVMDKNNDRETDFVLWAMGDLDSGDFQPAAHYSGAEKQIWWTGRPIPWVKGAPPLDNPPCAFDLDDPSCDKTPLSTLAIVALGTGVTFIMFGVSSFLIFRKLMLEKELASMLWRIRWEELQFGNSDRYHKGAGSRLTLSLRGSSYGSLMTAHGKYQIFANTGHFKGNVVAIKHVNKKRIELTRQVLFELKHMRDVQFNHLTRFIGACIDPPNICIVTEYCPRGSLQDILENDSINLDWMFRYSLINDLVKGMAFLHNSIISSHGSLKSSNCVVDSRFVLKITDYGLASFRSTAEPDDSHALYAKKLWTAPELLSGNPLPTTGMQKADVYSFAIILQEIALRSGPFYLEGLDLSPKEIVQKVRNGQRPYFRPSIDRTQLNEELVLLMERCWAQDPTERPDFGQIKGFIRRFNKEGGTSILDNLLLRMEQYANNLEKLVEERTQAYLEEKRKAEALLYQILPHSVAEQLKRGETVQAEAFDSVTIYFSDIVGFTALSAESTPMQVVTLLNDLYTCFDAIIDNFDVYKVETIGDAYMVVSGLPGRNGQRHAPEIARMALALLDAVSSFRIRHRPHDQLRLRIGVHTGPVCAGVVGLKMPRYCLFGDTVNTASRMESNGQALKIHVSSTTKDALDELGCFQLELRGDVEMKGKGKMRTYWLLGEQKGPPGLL

Sequence of Recombinant human NEP (P08473 whole entry): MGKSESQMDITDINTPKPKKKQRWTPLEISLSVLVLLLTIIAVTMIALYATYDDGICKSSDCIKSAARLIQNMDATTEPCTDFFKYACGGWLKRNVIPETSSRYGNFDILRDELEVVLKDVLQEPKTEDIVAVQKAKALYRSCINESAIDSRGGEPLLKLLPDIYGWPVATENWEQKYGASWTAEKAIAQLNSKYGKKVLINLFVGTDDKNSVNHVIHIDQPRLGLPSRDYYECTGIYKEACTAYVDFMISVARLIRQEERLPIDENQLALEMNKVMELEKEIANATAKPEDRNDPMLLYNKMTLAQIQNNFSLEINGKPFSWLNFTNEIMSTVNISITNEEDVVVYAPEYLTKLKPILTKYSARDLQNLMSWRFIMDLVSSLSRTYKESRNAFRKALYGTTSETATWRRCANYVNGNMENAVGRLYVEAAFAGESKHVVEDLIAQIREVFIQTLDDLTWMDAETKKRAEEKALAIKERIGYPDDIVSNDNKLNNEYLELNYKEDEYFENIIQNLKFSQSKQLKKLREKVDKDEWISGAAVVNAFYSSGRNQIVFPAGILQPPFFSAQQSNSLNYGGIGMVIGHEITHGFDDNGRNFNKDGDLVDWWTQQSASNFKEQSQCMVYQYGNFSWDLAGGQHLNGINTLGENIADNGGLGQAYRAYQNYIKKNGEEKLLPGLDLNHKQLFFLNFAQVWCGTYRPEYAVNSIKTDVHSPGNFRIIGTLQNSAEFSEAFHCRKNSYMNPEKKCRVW

| cGMP response relative to 1 uM CNP22 (%) at 0.01 µM ([2]; 10 nM natriuretic peptide) | cGMP response relative to 1 uM CNP22 (%) at 1 µM ([2]; 1 uM natriuretic peptide) | Compound | resistance to NEP cleavage/degradation (in words) [1] | also measured |
| --- | --- | --- | --- | --- |
| 36% | 84% | CC[C@H](C)[C@@H]1NC(=O)[C@H](CCCNC(=N)N)NC(=O)[C@H](CC(=O)O)NC(=O)[C@H](CC(C)C)NC(=O)[C@H](CCCCN)NC(=O)[C@H](CC(C)C)NC(=O)CNC(=O)[C@H](Cc2ccccc2)NC(=O)[C@@H](NC(=O)CNC(=O)[C@H](CCCCN)NC(=O)[C@H](CO)NC(=O)[C@H](CC(C)C)NC(=O)CNC(=O)[C@H](CCCNC(=N)N)NC(=O)[C@H](C)NC(=O)[C@H](CC(N)=O)NC(=O)[C@@H]2CCCN2C(=O)[C@H](Cc2c[nH]cn2)NC(=O)[C@H](CCC(=O)O)NC(=O)[C@H](CCC(N)=O)NC(=O)[C@H](CC(C)C)NC(=O)[C@H](CC(C)C)NC(=O)[C@H](CCCNC(=N)N)NC(=O)[C@H](C)NC(=O)[C@H](Cc2c[nH]c3ccccc23)NC(=O)[C@H](C)NC(=O)[C@H](C)N)CSSC[C@@H](C(=O)O)NC(=O)CNC(=O)[C@H](CC(C)C)NC(=O)CNC(=O)[C@H](CO)NC(=O)[C@H](CCSC)NC(=O)[C@H](CO)NC(=O)CNC1=O [CB] (H-AAWARLLQEHPNARGLSKGCFGLKLDRIGSMSGLGC-OH; disulfide 20-36 (inferred); N-terminus and C-terminus assumed) | much more resistant to NEP cleavage than CNP22 |  |
|  |  | CC[C@H](C)[C@@H]1NC(=O)[C@H](CCCNC(=N)N)NC(=O)[C@H](CC(=O)O)NC(=O)[C@H](CC(C)C)NC(=O)[C@H](CCCCN)NC(=O)[C@H](CC(C)C)NC(=O)CNC(=O)[C@H](Cc2ccccc2)NC(=O)[C@@H](NC(=O)CNC(=O)[C@H](CCCNC(=N)N)NC(=O)[C@H](CO)NC(=O)[C@H](CC(C)C)NC(=O)CNC(=O)[C@H](CCCNC(=N)N)NC(=O)[C@H](CCCNC(=N)N)NC(=O)[C@H](CC(N)=O)NC(=O)[C@H](C)NC(=O)CN)CSSC[C@@H](C(=O)O)NC(=O)CNC(=O)[C@H](CC(C)C)NC(=O)CNC(=O)[C@H](CO)NC(=O)[C@H](CCSC)NC(=O)[C@H](CO)NC(=O)CNC1=O [Analog AY] (H-GANRRGLSRGCFGLKLDRIGSMSGLGC-OH; disulfide 11-27 (inferred); N-terminus and C-terminus assumed) | same lability to NEP hydrolysis as CNP22 |  |
|  |  | PEG20K-CNP22: CNP22 conjugated at the N-terminus to polydispersed PEG20K |  | NEP Cleavage (t1/2, min) ([1]; pH 7): >>160 min; cGMP Response rel. to 1 uM CNP22, 10 nM ([2]; 10 nM natriuretic peptide): 0; cGMP Response rel. to 1 uM CNP22, 1 uM ([2]; 1 uM natriuretic peptide): 15 |
|  |  | CC[C@H](C)[C@@H]1NC(=O)[C@H](CCCNC(=N)N)NC(=O)[C@H](CC(=O)O)NC(=O)[C@H](CC(C)C)NC(=O)[C@H](CCCCN)NC(=O)[C@H](CC(C)C)NC(=O)CNC(=O)[C@H](Cc2ccccc2)NC[C@@H](NC(=O)CNC(=O)[C@H](CCCCN)NC(=O)[C@H](CO)NC(=O)[C@H](CC(C)C)NC(=O)CN)CSSC[C@@H](C(=O)O)NC(=O)CNC(=O)[C@H](CC(C)C)NC(=O)CNC(=O)[C@H](CO)NC(=O)[C@H](CCSC)NC(=O)[C@H](CO)NC(=O)CNC1=O [A] |  | resistance to cleavage at the Cys6-Phe7 bond relative to wtCNP22 ([1]; data not shown): resistance or improved resistance |
| 15% | 87% | CC[C@H](C)[C@@H]1NC(=O)[C@H](CCCNC(=N)N)NC(=O)[C@H](CC(=O)O)NC(=O)[C@H](CC(C)C)NC(=O)[C@H](CCCCN)NC(=O)[C@H](CC(C)C)NC(=O)CNC(=O)[C@H](Cc2ccccc2)NC(=O)[C@@H](NC(=O)CNC(=O)[C@H](CCCCN)NC(=O)[C@H](CO)NC(=O)[C@H](CC(C)C)NC(=O)CNC(=O)[C@H](CCC(N)=O)NC(=O)[C@H](CO)NC(=O)[C@H](CC(C)C)NC(=O)[C@H](CCCNC(=N)N)NC(=O)[C@H](C)NC(=O)[C@@H](NC(=O)[C@H](C)NC(=O)[C@H](Cc2c[nH]c3ccccc23)NC(=O)[C@H](C)NC(=O)[C@H](CCCCN)NC(=O)[C@H](Cc2ccccc2)NC(=O)[C@H](C)NC(=O)[C@H](CCCNC(=N)N)NC(=O)[C@H](CCC(=O)O)NC(=O)CN)C(C)C)CSSC[C@@H](C(=O)O)NC(=O)CNC(=O)[C@H](CC(C)C)NC(=O)CNC(=O)[C@H](CO)NC(=O)[C@H](CCSC)NC(=O)[C@H](CO)NC(=O)CNC1=O [CE] (H-GERAFKAWAVARLSQGLSKGCFGLKLDRIGSMSGLGC-OH; disulfide 21-37 (inferred); N-terminus and C-terminus assumed) | much more resistant to NEP cleavage than CNP22 |  |
| 24% | 76% | CC[C@H](C)[C@@H]1NC(=O)[C@H](CCCNC(=N)N)NC(=O)[C@H](CC(=O)O)NC(=O)[C@H](CC(C)C)NC(=O)[C@H](CCCCN)NC(=O)[C@H](CC(C)C)NC(=O)CNC(=O)[C@H](Cc2ccccc2)NC(=O)[C@@H](NC(=O)CNC(=O)[C@H](CCCCN)NC(=O)[C@H](CO)NC(=O)[C@H](CC(C)C)NC(=O)CNC(=O)[C@H](C)NC(=O)[C@H](CC(N)=O)NC(=O)[C@@H]2CCCN2C(=O)[C@H](Cc2c[nH]cn2)NC(=O)[C@H](CCC(=O)O)NC(=O)[C@H](CCC(N)=O)NC(=O)[C@H](CC(C)C)NC(=O)[C@H](CC(C)C)NC(=O)[C@H](CCCNC(=N)N)NC(=O)[C@H](C)NC(=O)[C@H](Cc2c[nH]c3ccccc23)NC(=O)[C@H](C)NC(=O)[C@H](C)N)CSSC[C@@H](C(=O)O)NC(=O)CNC(=O)[C@H](CC(C)C)NC(=O)CNC(=O)[C@H](CO)NC(=O)[C@H](CCSC)NC(=O)[C@H](CO)NC(=O)CNC1=O [CA] (H-AAWARLLQEHPNAGLSKGCFGLKLDRIGSMSGLGC-OH; disulfide 19-35 (inferred); N-terminus and C-terminus assumed) | much more resistant to NEP cleavage than CNP22 |  |
|  |  | CC[C@H](C)[C@@H]1NC(=O)[C@H](CCCNC(=N)N)NC(=O)[C@H](CC(=O)O)NC(=O)[C@H](CC(C)C)NC(=O)[C@H](CCCCN)NC(=O)[C@H](CC(C)C)NC(=O)CNC(=O)C(c2ccccc2)CNC(=O)[C@@H](NC(=O)CNC(=O)[C@H](CCCCN)NC(=O)[C@H](CO)NC(=O)[C@H](CC(C)C)NC(=O)CN)CSSC[C@@H](C(=O)O)NC(=O)CNC(=O)[C@H](CC(C)C)NC(=O)CNC(=O)[C@H](CO)NC(=O)[C@H](CCSC)NC(=O)[C@H](CO)NC(=O)CNC1=O (some centres unmarked) [H] (H-GLSKGC[X1]GLKLDRIGSMSGLGC-OH; disulfide 6-22; N-terminus and C-terminus assumed) |  | resistance to cleavage at the Cys6-Phe7 bond relative to wtCNP22 [1]: resistance or improved resistance |
|  |  | DLRVDTKSRAAWARLLQEHPNARKYKGANKKGLSKGCFGLKLDRIGSMSGLGC (disulfide 37-53 (inferred)) [Analog BM] | resistant to NEP degradation |  |
|  |  | CC[C@H](C)[C@@H]1NC(=O)[C@H](CCCNC(=N)N)NC(=O)[C@H](CC(=O)O)NC(=O)[C@H](CC(C)C)NC(=O)[C@H](CCCCN)NC(=O)[C@H](CC(C)C)NC(=O)CNC(=O)[C@H](Cc2ccccc2)NC(=O)[C@@H](NC(=O)CNC(=O)[C@H](CCCCN)NC(=O)[C@H](CO)NC(=O)[C@H](CC(C)C)NC(=O)CNC(=O)[C@H](CCCCN)NC(=O)[C@H](CCCCN)NC(=O)[C@H](CC(N)=O)NC(=O)[C@H](C)NC(=O)CNC(=O)[C@H](CCCCN)NC(=O)[C@H](Cc2ccc(O)cc2)NC(=O)[C@H](CCCCN)NC(=O)[C@H](CCCNC(=N)N)NC(=O)[C@H](C)NC(=O)[C@H](CC(N)=O)NC(=O)[C@@H]2CCCN2C(=O)[C@H](Cc2c[nH]cn2)NC(=O)[C@H](CCC(=O)O)NC(=O)[C@@H](N)CCC(N)=O)CSSC[C@@H](C(=O)O)NC(=O)CNC(=O)[C@H](CC(C)C)NC(=O)CNC(=O)[C@H](CO)NC(=O)[C@H](CCSC)NC(=O)[C@H](CO)NC(=O)CNC1=O [Analog BL] | resistant to NEP degradation |  |
